For 7 compounds, EC50 and Emax results are on record in US9315498B2, “Arlethynyl derivatives” (Hoffmann-La Roche Inc., priority 2010, dated 2016).

As a reminder, the EC50 is the concentration giving half of the maximal effect.

The assay concerns the target human mGlu5a receptor (Homo sapiens (Human), UniProt P41594). In words: Intracellular Ca2+ mobilization assay (mGlu5 PAM). Type of assay: cell-based. Conditions: for EC50: HEK-293 cells stably transfected with human mGlu5a, L-glutamate added at EC20 after pre-incubation with test compound, read-out: EC50 (nM) mGlu5PAM; for Emax: maximal response in % of the maximal stimulatory effect obtained with saturating concentrations of L-glutamate, read-out: Eff. (%). An outline of the steps: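 HEK-293 cells stably expressing human mGlu5a at low level were loaded with Fluo-4AM and preincubated 10–30 min at 37 °C with 11-point half-log compound dilutions. L-glutamate was then added at its daily-determined EC20 (typically around 80 μM). Peak fluorescence minus basal, normalized to maximal glutamate effect, was fitted to give EC50, Hill slope and maximal response.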
Background: Calcium flux is commonly read through the fluorescence of an indicator in the cells.

Sequence of human mGlu5a receptor (P41594 other isoform, or with tags, fused parts or gaps): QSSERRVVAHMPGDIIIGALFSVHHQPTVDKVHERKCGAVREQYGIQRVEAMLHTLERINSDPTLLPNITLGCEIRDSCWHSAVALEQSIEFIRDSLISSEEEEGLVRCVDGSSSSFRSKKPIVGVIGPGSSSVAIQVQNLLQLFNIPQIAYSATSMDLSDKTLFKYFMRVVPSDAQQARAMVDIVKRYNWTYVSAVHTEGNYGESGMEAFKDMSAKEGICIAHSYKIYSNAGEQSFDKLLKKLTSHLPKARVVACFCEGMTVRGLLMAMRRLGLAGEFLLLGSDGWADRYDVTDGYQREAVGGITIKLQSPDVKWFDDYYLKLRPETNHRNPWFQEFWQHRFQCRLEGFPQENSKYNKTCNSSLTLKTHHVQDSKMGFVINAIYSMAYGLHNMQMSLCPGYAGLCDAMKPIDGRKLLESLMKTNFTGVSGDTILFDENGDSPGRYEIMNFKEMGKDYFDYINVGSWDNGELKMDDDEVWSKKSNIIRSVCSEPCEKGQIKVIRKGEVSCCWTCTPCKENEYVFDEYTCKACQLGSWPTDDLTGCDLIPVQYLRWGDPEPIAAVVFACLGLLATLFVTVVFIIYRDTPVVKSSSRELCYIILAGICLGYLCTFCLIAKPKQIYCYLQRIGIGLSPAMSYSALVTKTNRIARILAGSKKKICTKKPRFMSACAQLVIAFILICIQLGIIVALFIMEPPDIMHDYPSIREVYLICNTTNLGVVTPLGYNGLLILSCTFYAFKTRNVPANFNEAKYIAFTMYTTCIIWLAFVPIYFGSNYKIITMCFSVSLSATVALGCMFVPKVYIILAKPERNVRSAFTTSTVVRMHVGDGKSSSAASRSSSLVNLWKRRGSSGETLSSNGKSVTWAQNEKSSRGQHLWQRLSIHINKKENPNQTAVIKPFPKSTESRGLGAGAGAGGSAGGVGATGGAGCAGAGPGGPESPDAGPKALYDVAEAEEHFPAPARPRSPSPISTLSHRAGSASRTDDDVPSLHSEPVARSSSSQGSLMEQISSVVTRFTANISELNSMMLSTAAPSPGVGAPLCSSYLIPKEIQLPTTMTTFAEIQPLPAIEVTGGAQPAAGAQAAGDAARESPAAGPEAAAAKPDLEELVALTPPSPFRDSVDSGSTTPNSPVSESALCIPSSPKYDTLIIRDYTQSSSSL

In the case of `COC1C(=O)N(c2ccc(C#Cc3ccccc3)cn2)CC1(C)C` (racemic) [Example 60, (RS)-3-Methoxy-4,4-dimethyl-1-(5-phenylethynyl-pyridin-2-yl)-pyrrolidin-2-one], the EC50 is 35 nM and the Emax is 89%.
In the same order, the values of `CO[C@H]1C(=O)N(c2ncc(C#Cc3cccc(F)c3)cn2)CC1(C)C` (single isomer, unassigned) [Example 132, (S or R)-1-[5-(3-Fluoro-phenylethynyl)-pyrimidin-2-yl]-3-methoxy-4,4-dimethyl-pyrrolidin-2-one] are 21 nM and 69%.
In the same order, the values of `Cn1cc(C#Cc2ccc(N3CC(C)(C)OC3=O)nc2)cn1` [Example 31, 5,5-Dimethyl-3-[5-(1-methyl-1H-pyrazol-4-ylethynyl)-pyridin-2-yl]-oxazolidin-2-one] are 26 nM and 55%.
With `CN1C(=O)N(c2ccc(C#Cc3ccccc3)cn2)[C@@H]2CCC[C@@H]21` (racemic) [Example 106, (3aRS, 6aSR)-1-methyl-3-(5-(phenylethynyl)pyridin-2-yl)hexahydrocyclopenta[d]imidazol-2(1H)-one], the half-maximal effective concentration (EC50) was 30 nM and the Emax was 42%.
For the compound `CN1C(=O)N(c2ccc(C#Cc3ccccc3)cn2)CC1C1CC1` (racemic) [Example 83, (RS)-4-Cyclopropyl-3-methyl-1-(5-phenylethynyl-pyridin-2-yl)-imidazolidin-2-one], the EC50 came out at 53 nM and the Emax is 86%.
The corresponding values for `CN1C(=O)N(c2ccc(C#Cc3cccnc3)cn2)C2CCCCC21` (stereo not drawn) [Example 85, (3aSR,7aRS)-(3aRS,7RS)-1-Methyl-3-(5-pyridin-3-ylethynyl-pyridin-2-yl)-octahydro-benzoimidazol-2-one] are 27 nM and 49%.
In the same order, the values of `CC1(C)CC(=O)N(c2ccc(C#Cc3ccccc3)nn2)C1` [Example 150, 4,4-Dimethyl-1-(6-(phenylethynyl)pyridazin-3-yl)pyrrolidin-2-one] are 21 nM and 113%.
